For one assay, the target named is T1, human PHD2 (PHD2181-417) (Homo sapiens, UniProt Q9GZT9).
T1 construct: Smt (SUMO) tag (cleaved yes); made in house; host or cells: E. coli BL21 (pBAD vector)
Put plainly: PHD enzymatic assay ([14C]-succinic acid production). The class given is biochemical. The note with it: PHD2181-417, HIF-1α peptide 10 μM, average of results; for IC50: read-out: Enzyme pIC50 (converted). Here is the method: Protein production was achieved by expression in BL21 cells grown in Terrific Broth containing 100 μg/ml ampicillin. Cell cultures were inoculated at 37° C. and grown to an OD600 of 0.8. Cultures were induced with 0.1% arabinose and grown overnight at 20° C. with continuous shaking at 225 rpm. Cells were then harvested by centrifugation and stored at −80° C. Cell pellets were suspended in Buffer A (50 mM Tris-HCl pH 7.2, 100 mM NaCl, 100 mM L-arginine, 1 mM TCEP, 0.05% (w/v) NP-40, 50 mM imidazole) followed by the addition of lysozyme and benzonase. Cells were lysed by sonication and the lysate was cleared by centrifugation (15,000 rpm, 90 min, 4° C.). The protein was purified by nickel affinity chromatography using a HisTrap Crude FF column (GE Healthcare). Samples were eluted in Buffer A with a 50-200 mM imidazole gradient. […] The flow-through was then dialyzed into 50 mM MES pH 6.0, 1 mM TCEP, 5 mM NaCl for ion exchange chromatography on a HiTrap SP Cation Exchange column (GE Healthcare). […] Fractions were pooled for further purification by size exclusion chromatography over a Superdex 75 Size Exclusion Column (GE Healthcare). Final protein was concentrated to 4 mg/ml and dialyzed in 10 mM PIPES pH 7.0, 100 mM NaCl, 0.5 mM TCEP.
(10 μM, California Peptide Research Inc., Napa, Calif.), and [5-^14C]-2-oxoglutaric acid (50 mCi/mmol, Moravek Chemicals, Brea, Calif.) in reaction buffer (40 mM Tris-HCl, pH 7.5, 0.4 mg/ml catalase, 0.5 mM DTT, 1 mM ascorbate) for 10 minutes. The reaction was stopped by addition of 50 μl of 70 mM H3PO4 and 50 μl of 500 mM NaH2PO4, pH3.2. Detection of [^14C]-succinic acid was achieved by separating from [5-^14C]-2-oxoglutaric acid by incubating the reaction mixture with 100 μl of 0.16 M DNP prepared in 30% perchloric acid. Next, 50 μl of unlabeled 20 mM 2-oxoglutaric acid/20 mM succinic acid, serving as carrier for the radioactivity, was added to the mixture, and was allowed to proceed for 30 minutes at room temperature. The reaction was then incubated with 50 μl of 1 M 2-oxoglutaric acid for 30 additional minutes at room temperature to precipitate the excess DNP. The reaction was then centrifuged at 2800×g for 10 minutes at room temperature to separate [^14C]-succinic acid in the supernatant from the precipitated [^14C]-dinitrophenylhydrazone. Fractions of the supernatant (400 μl) were counted using a beta counter (Beckman Coulter, Fullerton, Calif.).

In a further assay the test system is Hep-3B cells. Put plainly: Cellular assay: erythropoietin secretion in Hep-3B cells. The class given is cell-based, human. The conditions noted are these: 100 μM compound, 24 hours, percent of EPO secretion relative to assay control compound 7-[(4-Chloro-phenyl)-(5-methyl-isoxazol-3-ylamino)-methyl]-quinolin-8-ol; for Emax at 100 µM: Homo sapiens, Hep3B, read-out: Cellular % EPO Stimulation. Here is the method: Hep-3B cells (ATCC, Manassas, Va.) were plated in 96-well plates at 20,000 cells per well in 100 μl of DMEM containing 10% fetal bovine serum, 1% non-essential amino acids, 50 IU/mL of penicillin and 50 μg/mL of streptomycin (all cell culture reagents from Invitrogen, Carlsbad, Calif.). Twenty-four hours after plating, compounds were added and incubated for an additional 24 hours. All compounds were tested under saturating conditions with final compound concentrations at 100 μM. Fifty microliters of the supernatant was then transferred to a human Hypoxia assay kit (Meso-Scale Discovery, Gaithersburg, Md.). Erythropoietin in the supernatant was detected according to the manufacturer's instructions as follows. EPO detection plates were blocked with 3% BSA in PBS overnight and 50 μl of the supernatant was incubated at room temperature in an orbital shaker for 2 h. Twenty-five microliters of 0.5 μg/ml anti-EPO detection antibody was added for 2 hours at room temperature in an orbital shaker. After 3 washes in PBS, 150 μl of 1× read buffer is added and the plate is then read on the MSD SECTOR instrument.

T1 sequence (Q9GZT9 181-417): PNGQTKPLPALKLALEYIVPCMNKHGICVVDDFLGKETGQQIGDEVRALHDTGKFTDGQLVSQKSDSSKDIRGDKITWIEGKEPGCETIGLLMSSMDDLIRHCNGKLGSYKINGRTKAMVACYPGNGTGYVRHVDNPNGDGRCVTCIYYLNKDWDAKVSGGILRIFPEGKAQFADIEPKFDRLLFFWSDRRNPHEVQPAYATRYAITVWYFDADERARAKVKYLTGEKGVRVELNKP

In the case of `Cc1ccc(Oc2ccc3nc(-n4cc(C(=O)O)cn4)[nH]c(=O)c3c2)cc1` [Example 47, 1-(4-Oxo-6-p-tolyloxy-3,4-dihydro-quinazolin-2-yl)-1H-pyrazole-4-carboxylic acid], the IC50 at human PHD2 (PHD2181-417) was 0.0316 µM. Also, in the assay on Hep-3B cells, the Emax at 100 µM turned out to be 95%.

Turning to `O=C(O)c1cnn(-c2nc3cc(Cl)c(Oc4ccc(Cl)cc4)cc3c(=O)[nH]2)c1` [Example 48, 1-[7-Chloro-6-(4-chloro-phenoxy)-4-oxo-3,4-dihydro-quinazolin-2-yl]-1H-pyrazole-4-carboxylic acid], on human PHD2 (PHD2181-417), the IC50 is 0.0316 µM. The Emax at 100 µM with Hep-3B cells worked out at 51%.

In the case of `Cc1cccc(C)c1Oc1cc2c(=O)[nH]c(-n3cc(C(=O)O)cn3)nc2cc1Cl` [Example 49, 1-[7-Chloro-6-(2,6-dimethyl-phenoxy)-4-oxo-3,4-dihydro-quinazolin-2-yl]-1H-pyrazole-4-carboxylic acid], on human PHD2 (PHD2181-417), the IC50 was 0.0316 µM. Also, the Emax at 100 µM in the assay on Hep-3B cells was 55%.

`O=C(O)c1cnn(-c2nc3cc(F)c(Oc4c(Cl)cccc4Cl)cc3c(=O)[nH]2)c1` [Example 50, 1-[6-(2,6-Dichloro-phenoxy)-7-fluoro-4-oxo-3,4-dihydro-quinazolin-2-yl]-1H-pyrazole-4-carboxylic acid]: the IC50 on human PHD2 (PHD2181-417) was 0.0316 µM. The Emax at 100 µM in the assay with Hep-3B cells was determined as 67%.

For the molecule `O=C(O)c1cnn(-c2nc3cc(F)c(Oc4ccc5ccccc5c4)cc3c(=O)[nH]2)c1` [Example 52, 1-[7-Fluoro-6-(naphthalen-2-yloxy)-4-oxo-3,4-dihydro-quinazolin-2-yl]-1H-pyrazole-4-carboxylic acid], the IC50 at human PHD2 (PHD2181-417) is 0.0398 µM. Moreover, the Emax at 100 µM in the assay with Hep-3B cells came to 76%.

In the case of `O=C(O)c1cnn(-c2nc3cc(Cl)c(Oc4cccc5ccccc45)cc3c(=O)[nH]2)c1` [Example 53, 1-[7-Chloro-6-(naphthalen-1-yloxy)-4-oxo-3,4-dihydro-quinazolin-2-yl]-1H-pyrazole-4-carboxylic acid], the IC50 at human PHD2 (PHD2181-417) is 0.0316 µM. In the assay on Hep-3B cells, the Emax at 100 µM stood at 45%.

In the case of `O=C(O)c1cnn(-c2nc3cc(Cl)c(Oc4ccc5ccccc5c4)cc3c(=O)[nH]2)c1` [Example 54, 1-[7-Chloro-6-(naphthalen-2-yloxy)-4-oxo-3,4-dihydro-quinazolin-2-yl]-1H-pyrazole-4-carboxylic acid], the IC50 on human PHD2 (PHD2181-417) was 0.0398 µM. For the same molecule, in the assay with Hep-3B cells, the Emax at 100 µM is 90%.

Take `O=C(O)c1cnn(-c2nc3cc(Cl)c(Oc4cccc5c4CCCC5)cc3c(=O)[nH]2)c1` [Example 55, 1-[7-Chloro-4-oxo-6-(5,6,7,8-tetrahydro-naphthalen-1-yloxy)-3,4-dihydro-quinazolin-2-yl]-1H-pyrazole-4-carboxylic acid]: the IC50 at human PHD2 (PHD2181-417) is 0.0316 µM. Further, the Emax at 100 µM in the assay with Hep-3B cells stood at 25%.

With `O=C(O)c1cnn(-c2nc3cc(F)c(Oc4cccc(F)c4)cc3c(=O)[nH]2)c1` [Example 56, 1-[7-Fluoro-6-(3-fluoro-phenoxy)-4-oxo-3,4-dihydro-quinazolin-2-yl]-1H-pyrazole-4-carboxylic acid], on human PHD2 (PHD2181-417), the IC50 is 0.02 µM. The Emax at 100 µM in the assay on Hep-3B cells worked out at 68%.

For the molecule `O=C(O)c1cnn(-c2nc3cc(F)c(Oc4cccc5ccccc45)cc3c(=O)[nH]2)c1` [Example 57, 1-[7-Fluoro-6-(naphthalen-1-yloxy)-4-oxo-3,4-dihydro-quinazolin-2-yl]-1H-pyrazole-4-carboxylic acid], the IC50 on human PHD2 (PHD2181-417) was 0.02 µM. Further, the Emax at 100 µM with Hep-3B cells came out at 135%.

Take `O=C(O)c1cnn(-c2nc3cc(F)c(Oc4ccc5c(c4)CCC5)cc3c(=O)[nH]2)c1` [Example 58, 1-[7-Fluoro-6-(indan-5-yloxy)-4-oxo-3,4-dihydro-quinazolin-2-yl]-1H-pyrazole-4-carboxylic acid]: the IC50 on human PHD2 (PHD2181-417) was 0.0316 µM. Moreover, the Emax at 100 µM with Hep-3B cells turned out to be 62%.

On to `Cc1cc2nc(-n3cc(C(=O)O)cn3)[nH]c(=O)c2cc1Oc1ccccc1` [Example 59, 1-(7-Methyl-4-oxo-6-phenoxy-3,4-dihydro-quinazolin-2-yl)-1H-pyrazole-4-carboxylic acid], for which the IC50 at human PHD2 (PHD2181-417) was 0.0251 µM. For the same molecule, the Emax at 100 µM in the assay on Hep-3B cells is 80%.

In the case of `O=C(O)c1cnn(-c2nc3ccc(Oc4cccc(Cl)c4Cl)cc3c(=O)[nH]2)c1` [Example 60, 1-[6-(2,3-dichloro-phenoxy)-4-oxo-3,4-dihydro-quinazolin-2-yl]-1H-pyrazole-4-carboxylic acid], the IC50 on human PHD2 (PHD2181-417) was 0.0316 µM. The Emax at 100 µM in the assay on Hep-3B cells was found to be 70%.

Take `COc1cc2nc(-n3cc(C(=O)O)cn3)[nH]c(=O)c2cc1Oc1c(C)cccc1C` [Example 61, 1-[6-(2,6-Dimethyl-phenoxy)-7-methoxy-4-oxo-3,4-dihydro-quinazolin-2-yl]-1H-pyrazole-4-carboxylic acid]: the IC50 at human PHD2 (PHD2181-417) was 0.02 µM. The Emax at 100 µM in the assay on Hep-3B cells is 86%.

With `COc1cc2nc(-n3cc(C(=O)O)cn3)[nH]c(=O)c2cc1Oc1ccccc1` [Example 62, 1-(7-Methoxy-4-oxo-6-phenoxy-3,4-dihydro-quinazolin-2-yl)-1H-pyrazole-4-carboxylic acid], the IC50 at human PHD2 (PHD2181-417) was 0.0398 µM. Besides, in the assay on Hep-3B cells, the Emax at 100 µM was 7%.

Take `Cc1cccc(C)c1Oc1c(F)cc2nc(-n3cc(C(=O)O)cn3)[nH]c(=O)c2c1F` [Example 63, 1-[6-(2,6-Dimethyl-phenoxy)-5,7-difluoro-4-oxo-3,4-dihydro-quinazolin-2-yl]-1H-pyrazole-4-carboxylic acid]: the IC50 at human PHD2 (PHD2181-417) was 0.02 µM. In the assay with Hep-3B cells, the Emax at 100 µM stood at 14%.

Consider `O=C(O)c1cnn(-c2nc3cc(F)c(Oc4ccccc4)c(F)c3c(=O)[nH]2)c1` [Example 64, 1-(5,7-Difluoro-4-oxo-6-phenoxy-3,4-dihydro-quinazolin-2-yl)-1H-pyrazole-4-carboxylic acid], for which the IC50 at human PHD2 (PHD2181-417) was 0.0251 µM. For the same molecule, the Emax at 100 µM in the assay on Hep-3B cells was 22%.

Regarding `O=C(O)c1cnn(-c2nc3ccc(Oc4cccnc4)cc3c(=O)[nH]2)c1` [Example 65, 1-[4-Oxo-6-(pyridin-3-yloxy)-3,4-dihydro-quinazolin-2-yl]-1H-pyrazole-4-carboxylic acid], the IC50 on human PHD2 (PHD2181-417) is 0.0251 µM. Besides, the Emax at 100 µM in the assay with Hep-3B cells amounted to 42%.

In the case of `O=C(O)c1cnn(-c2nc3cc(Oc4ccccc4)ccc3c(=O)[nH]2)c1` [Example 66, 1-(4-Oxo-7-phenoxy-3,4-dihydro-quinazolin-2-yl)-1H-pyrazole-4-carboxylic acid], the IC50 on human PHD2 (PHD2181-417) was 0.0631 µM. The Emax at 100 µM in the assay on Hep-3B cells was determined as 41%.

Consider `NC(CO)(CO)CO.O=C(O)c1cnn(-c2nc3cc(C4CCOCC4)ccc3c(=O)[nH]2)c1` [Example 67, 1-[4-Oxo-7-(tetrahydro-pyran-4-yl)-3,4-dihydro-quinazolin-2-yl]-1H-pyrazole-4-carboxylic acid tris(hydroxymethyl)aminomethane salt], for which the “Enzyme pIC50” value on human PHD2 (PHD2181-417) turned out to be 7.8. The “Cellular % EPO Stimulation” value with Hep-3B cells was determined as 18%.

As to `O=C(O)c1cnn(-c2nc3cc(Cl)c(-c4ccccc4)cc3c(=O)[nH]2)c1` [Example 68, 1-(7-Chloro-4-oxo-6-phenyl-3,4-dihydro-quinazolin-2-yl)-1H-pyrazole-4-carboxylic acid], the IC50 on human PHD2 (PHD2181-417) was 0.02 µM. The Emax at 100 µM in the assay on Hep-3B cells is 59%.

These data come from patent US8937078B2, “Quinazolinones as prolyl hydroxylase inhibitors” (Janssen Pharmaceutica NV, priority 2009, dated 2015).
